We go through four molecules from patent publication US9808016B2, “Pesticide composition for shortening the virus lethal time” (priority 2012, dated 2017).

One may read the LC50 as the concentration lethal to half of the exposed cells or organisms.

Series [1] relates to third instar larvae of Spodoptera litura. The experiment in a line: Lethal time (LT50/LT90) of third instar larvae treated with nucleopolyhedrovirus and low concentration pesticides. Type of series: in vivo. Conditions: 1.47 ppm of Chlorantraniliprole alone. From the text: When treated with 5.5×10^5 PIB/ml of the Spodoptera litura nucleopolyhedrovirus alone, the 50% lethal time (LT50) of the third instar larvae was 9.2 days. But when treated with the formulation of the present invention, 5.5×10^5 PIB/ml of the virus and 1.47 ppm of Chlorantraniliprole, the LT50 was shortened to 1-2 days and the 90% of lethal time (LT90) was achieved by 3-4 days (see Table 1).

The test system of series [2] is Spodoptera litura. The experiment in a line: Control rate of Spodoptera litura in Brassica oleracea crops in the field. Type of series: in vivo. The following applies: for Control rate One week after the first treatment / Control rate One week after the second treatment / Control rate One week after the third treatment / Control rate Two weeks after the third treatment / Control rate mean: field, NPV 10^6 PIB/mL, Chlorfluazuron 5 ppm, Chlorantraniliprole 1.47 ppm; for Control rate One week after the first treatment / Control rate One week after the second treatment / Control rate One week after the third treatment / Control rate Two weeks after the third treatment: Brassica oleracea; for Control rate mean: mean of the four assessments. From the text:
Although mixing of proper pesticides can achieve synergistic effects, the mixture with current concentration for field application equals to twice the amount of pesticides used (If the viruses or pesticides are originally used individually, the mixture would be the same concentration used together). […] The content of Chlorantraniliprole used in the present invention (2% of the current registered concentration, 1.47 ppm) was 50 folds lower than the existing application technique. When mixing with Spodoptera litura nucleopolyhedrovirus, the LT50 of the third instar larvae was less than 2 days and the LT90 was only 3-4 days. […] However, when mixing the low concentration of Chlorantraniliprole with the virus, only 2% of the current registered amount of Chlorantraniliprole was mixed with the virus, 85-95% of control rate was achieved (Table 3).
The concentration of the Spodoptera litura nucleopolyhedrovirus: 10^6 PIB/mL; Chlorfluazuron was 5 ppm (20% of the current registered concentration); Chlorantraniliprole was 1.47 ppm (2% of the current registered concentration)

For series [3], the system named is third instar larvae of Spodoptera litura. The experiment in a line: Cumulative death rates of third instar larvae (FIG. 1). Type of series: in vivo. The following applies: Chlorantraniliprole 7.36 ppm alone. The source says:
The cumulative death rates of the third instar larvae of Spodoptera litura to 10% of the registered concentration of Chlorantraniliprole (7.36 ppm), nucleopolyhedrovirus (5.5×10^5 PIB/ml) and the mixture of 10% of the registered concentration of Chlorantraniliprole+nucleopolyhedrovirus were shown in FIG. 1. It cost 11 days for the treatment of nucleopolyhedrovirus alone to achieve 100% of death rate. For the treatment of Chlorantraniliprole alone, only 80% of death rate was achieved.

Series [4] has the same test system. The experiment in a line: Indoor experiments: death rates with seven concentrations of Chlorantraniliprole mixed with nucleopolyhedrovirus (FIG. 2). Type of series: in vivo. Conditions: 40 ppm of Chlorantraniliprole. The protocol:
In the indoor experiments, the third instar larvae of Spodoptera litura were treated with the mixtures of seven different concentrations of Chlorantraniliprole with the nucleopolyhedrovirus. […] The synergistic effect of the mixture was more significant especially in the comparison of the low death rate caused by the low concentration of Chlorantraniliprole (see FIG. 2).

The test system of series [5] is Spodoptera litura. Conditions: for LC50: 3 days after the treatment, NPV 5.5 × 10^5 PIB/ml where combined; for synergistic effects: chemical pesticide combined with the virus, compared with the pesticide alone.

Turning to `CNC(=O)c1cc(Cl)cc(C)c1NC(=O)c1cc(Br)nn1-c1ncccc1Cl` [Chlorantraniliprole], the pest control effect entry in series [1] is reported as “no pest control effect”. In addition, in the series with Spodoptera litura [2], the “Control rate One week after the first treatment” value is on record as 31.6%, the “Control rate One week after the second treatment” value amounted to 22.9%, the “Control rate One week after the third treatment” value came out at 77.3% and the “Control rate Two weeks after the third treatment” value is −5%. In addition, in the series with Spodoptera litura [2], the Control rate mean is 32%. Moreover, the “pest control effects in the field” value in the series on Spodoptera litura [2] (low concentration (1.47 ppm) administered alone) is given as “no pest control effects”. The death rate achieved in series [3] is 80%. The death rate in series [4] is recorded as 100%. Further, in the series with Spodoptera litura [5], the LC50 worked out at 1.36 ppm and the synergistic effects came to 4 folds.

With `CCOCn1c(-c2ccc(Cl)cc2)c(C#N)c(Br)c1C(F)(F)F` [Chlorfenapyr], the LC50 in the series on Spodoptera litura [5] worked out at 11.8 ppm.

In the case of `O=C(NC(=O)c1c(F)cccc1F)Nc1cc(Cl)c(Oc2ncc(C(F)(F)F)cc2Cl)c(Cl)c1` [Chlorfluazuron], in the series with Spodoptera litura [2], the “Control rate One week after the first treatment” value is given as −3.2%, the “Control rate One week after the second treatment” value is −50.3%, the “Control rate One week after the third treatment” value was found to be 38.6% and the “Control rate Two weeks after the third treatment” value amounted to 19.2%. Besides, in the series with Spodoptera litura [2], the Control rate mean was 1.0%. For the same molecule, the LC50 in the series with Spodoptera litura [5] is 7.48 ppm.

In the case of `N#Cc1ccc(CC(=NNC(=O)Nc2ccc(OC(F)(F)F)cc2)c2cccc(C(F)(F)F)c2)cc1` (mixture of isomers) [Metaflumizone], the synergistic effects entry with Spodoptera litura [5] is “interfered effects”.
